The record followed here is US5807742A, “Neurokinin receptor cell lines” (Merrell Pharmaceuticals Inc., priority 1996, dated 1998).

For test [1], the target named is T1, neurokinin A receptor (Bos taurus, UniProt P05363).
T1 construct: expressed in transfected cells
T1 sequence (P05363 1-384): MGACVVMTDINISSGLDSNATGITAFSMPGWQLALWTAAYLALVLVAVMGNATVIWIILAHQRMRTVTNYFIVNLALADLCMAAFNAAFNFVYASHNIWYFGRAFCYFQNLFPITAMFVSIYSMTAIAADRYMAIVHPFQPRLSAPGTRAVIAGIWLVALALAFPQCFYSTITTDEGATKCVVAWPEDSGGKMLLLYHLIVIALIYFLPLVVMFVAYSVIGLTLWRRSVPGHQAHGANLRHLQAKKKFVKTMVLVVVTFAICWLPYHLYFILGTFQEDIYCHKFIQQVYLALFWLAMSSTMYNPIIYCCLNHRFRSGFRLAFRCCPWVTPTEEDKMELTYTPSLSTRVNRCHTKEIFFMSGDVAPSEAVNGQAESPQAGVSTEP
Description: [125I]NKA receptor binding (saturation/Scatchard and competition) in B82 cells transfected with pSKR56S cDNA (SKLKB82#n). Set-up: species or system bovine. As to conditions: SKLKB82#3 cells; FIG. 4. How it is done:
(§1) The homogenate is centrifuged at 48,000×g for 10 min at 4° C.

Test [2] has as its target T1, neurokinin A receptor. Description: [3H]inositol-1-phosphate (IP1) accumulation in SKLKB82#3 cells. The test is classed as cell-based, bovine.
Description: The culture was incubated for 22-24 hours under the same conditions. After this incubation, the cells were washed once with 1.0 ml of IMDM for ten minutes and incubated for ten minutes in 0.2 ml of incubation buffer (IMDM with 10 mM LiCl, 40 ug/ml bacitracin, 4 ug/ml leupeptin, and 4 ug/ml chymostatin). […] The reaction was terminated in 60 minutes by aspiring the media and adding 0.5 ml methanol. The cells were scraped from the wells and placed into chloroform resistant tubes. A second aliquot of 0.5 ml methanol was used to collect the remaining cells. The cell suspensions were mixed with 1.0 ml chloroform and 0.5 ml double distilled water to obtain a two phase separation. After centrifugation at 4200g for 10 minutes, 0.9 ml aliquots of the upper phase were added to 2.0 ml of distilled water and mixed. This mixture was passed through poly prep columns (Bio-Rad Laboratories, Richmond, Calif.) which consisted of 2.0 ml slurry of ten percent anion exchange resin in formate form (AG1-X8, 100-200 mesh, Bio-Rad Laboratories, Richmond, Calif.). The columns were washed three times with 5.0 ml of distilled water and two times with 5.0 ml of 5 mM sodium tetraborate/60 mM sodium formate (Baker, Phillipsburg, N.J.). […] The eluate was mixed with nine ml of Aquamix (West Chem., San Diego, Calif.) and the radioactivity was counted.
For test [3], the target named is T2, NKA receptor (hamster urinary bladder) (Mesocricetus auratus, UniProt P51144).
T2 construct: the hamster urinary bladder membranes were run as a standard control; from tissue; host or cells: hamster urinary bladder membranes
T2 sequence (P51144 1-384): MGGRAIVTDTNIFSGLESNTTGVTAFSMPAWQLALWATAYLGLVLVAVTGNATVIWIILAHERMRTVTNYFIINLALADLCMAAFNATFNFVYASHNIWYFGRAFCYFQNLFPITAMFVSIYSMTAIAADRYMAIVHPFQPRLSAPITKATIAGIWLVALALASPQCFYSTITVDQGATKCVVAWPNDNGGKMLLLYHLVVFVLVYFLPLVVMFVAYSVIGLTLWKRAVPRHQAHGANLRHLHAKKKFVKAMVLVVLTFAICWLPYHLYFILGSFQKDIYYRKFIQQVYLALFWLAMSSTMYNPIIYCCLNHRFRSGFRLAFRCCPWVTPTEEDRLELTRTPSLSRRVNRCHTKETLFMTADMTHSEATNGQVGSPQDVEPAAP
Description: [125I]NKA receptor binding in hamster urinary bladder membranes (standard control). The conditions noted are these: FIG. 4. How it is done: as §1

As usually defined, the EC50 is the midpoint of the concentration-response curve. The low end stands for higher potency in that assay, the high end for lower potency in that assay.

Starred links: 1 amine or outer side, 2 acyl side, 3 side chain; linkers in the order of their positions; H or OH if unused. Non-standard residues stand in square brackets, D forms with d. Residues, ends and D or L forms follow the SMILES beside them. NMeF = CN[C@@H](Cc1ccccc1)C(=O)O; Suc = O=C(CCC(=O)[*:2])[*:1]

Take `CSCC[C@H](NC(=O)[C@H](CC(C)C)NC(=O)CNC(=O)[C@H](Cc1ccccc1)N(C)C(=O)[C@H](Cc1ccccc1)NC(=O)[C@H](CC(=O)O)NC(=O)CCC(=O)O)C(N)=O` [senktide] (Suc-DF[NMeF]GLM-NH2): the “potency rank-order, inhibition of [125I]NKA receptor binding (KI)” value at neurokinin A receptor [1] was “followed by Nle^10 NKA (4-10), substance P, and senktide”; in test [3], “followed by Nle^10 NKA (4-10), substance P, and senktide”. For the same molecule, the EC50 on neurokinin A receptor [2] is around 1300 µM.
